Like-named read-outs stand apart in the source and are kept apart here.

This is an account of results in patent US20230348418A1, “ISOINDOLINONE COMPOUNDS” (Monte Rosa Therapeutics, Inc., priority 2021, published 2023).

The target of experiment [1] is T1, IKZF3 (Aiolos) (Homo sapiens, UniProt Q9UKT9).
T1 construct: endogenous in cells; host or cells: MM1S (ATCC CRL-2974)
Put plainly: Western blot selectivity assay in MM1S cells: IKZF3. It is filed as cell-based. Further details: key: A represents a no degradation observed at 30 μM; B represents trace degradation at 30 μM (below 20%); C represents weak degradation at 30 μM (below 50%); D represents degradation at 30 μM (>90%); E represents degradation at 3 μM (>90%); F represents degradation at 0.3 μM (>90%). As to conditions: MM1S cells, 0.3, 3 and 30 μM, 6 hours. The protocol:
MM1S cells were purchased from ATCC (cat. Number CRL-2974), sub-cultured in 90% RPMI 1640 with 10% FBS, supplemented with 1×P/S and incubated at 37° C., 5% CO2. Compounds were stored as 10 mM DMSO stock. For the assay, MM1S cells (3 million cells/well) were plated in 6-well plates and incubated over night. Cells were treated with respective compounds using a serial dilution: 0.3 μM, 3 μM and 30 μM as well as a vehicle only (DMSO) control for 6 hours. Media with suspension cells was subsequently transferred to 15 mL conical tubes, wells rinsed twice with ice-cold PBS and merged with cell suspension in respective 15 mL conical tube. Cells were spinned down, supernatant aspirated, pellets resuspended in ice-cold PBS and transferred to microtubes. Cells were spinned down, supernatant aspirated and pellets resuspended in 120 μL RIPA lysis buffer supplemented with protease and phosphatase inhibitors. Cell lysates were incubated on ice for 20 minutes followed by centrifugation at >20,000×g for 5 min. Supernatants were transferred to fresh microtubes and stored at −80° C. Total protein concentration was determined using a BCA assay with a BSA standard curve and concentration of all samples was adjusted to 1 mg/mL. 25 μL 4×LDS sample buffer supplemented with 100 mM DTT was added to 75 μL sample. Samples were centrifuged (8,000×g, 1 min) and incubated at 95° C. for 5 min followed by another centrifugation step (8,000×g, 1 min). 20 μL of each sample was loaded on a 4-12% gel alongside a protein molecular weight marker. Gels were run in the presence of MOPS buffer at 80 Volts for 30 min, followed by 120 Volts for 1.5 h and proteins subsequently transferred onto nitrocellulose membranes at 20 Volts for 7 min using an iBlot2 Gel Transfer Device. Membranes were then cut horizontally into two pieces, covering 80-50 kDa and 50-25 kDa. Blocking the membranes was performed by gently shaking in 5% (w/v) skim milk in TSB-T for 1 hr at room temperature. All primary antibodies were used at a 1/1000 in 5% (w/v) BSA dissolved in TBST and incubated with membranes over night at 4° C. Anti-IKZF1 (Ikaros; D6N9Y; 14859S), anti-IKZF3 (Aiolos; D1C1E; 15103S) antibodies were purchased from Cell Signalling Technology, anti-ZFP91 antibody from Bethyl laboratories, anti-GSPT1 from Sigma Aldrich (HPA052488) and anti CK1alpha from AbCam (ab206652). After three washes with 1×TBST for 5 min, HRP-coupled secondary antibodies diluted in 5% (w/v) BSA/TBST (Goat Anti-Rb IgG, dil. 1/10,000; Goat Anti-Mouse IgG, dil. 1/5000) were added for 1 hr at room temperature. […] Chemiluminescence signals were then detected using a LAS-4000 system with default settings and signals quantified using Image Studio Lite software (version 5.2). […]
For orientation: A western blot detects proteins with antibodies after separation by electrophoresis.

Experiment [2] deals with T2, IKZF1 (Ikaros) (Homo sapiens, UniProt Q13422).
T2 construct: endogenous in cells; host or cells: MM1S (ATCC CRL-2974)
T2 sequence (Q96SW2 whole entry partner): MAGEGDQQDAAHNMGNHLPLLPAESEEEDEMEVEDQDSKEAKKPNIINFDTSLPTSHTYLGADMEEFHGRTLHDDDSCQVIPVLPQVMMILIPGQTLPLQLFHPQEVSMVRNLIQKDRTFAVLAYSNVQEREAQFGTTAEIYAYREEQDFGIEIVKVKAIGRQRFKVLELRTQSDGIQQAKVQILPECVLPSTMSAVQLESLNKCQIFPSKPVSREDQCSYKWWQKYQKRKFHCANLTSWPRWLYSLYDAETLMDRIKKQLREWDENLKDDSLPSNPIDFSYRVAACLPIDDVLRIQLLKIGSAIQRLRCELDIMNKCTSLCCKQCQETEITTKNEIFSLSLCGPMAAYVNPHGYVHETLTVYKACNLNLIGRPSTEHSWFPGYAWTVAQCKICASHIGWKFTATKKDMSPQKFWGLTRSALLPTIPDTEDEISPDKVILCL
T2 sequence (Q16531 2-1140 partner limits assumed): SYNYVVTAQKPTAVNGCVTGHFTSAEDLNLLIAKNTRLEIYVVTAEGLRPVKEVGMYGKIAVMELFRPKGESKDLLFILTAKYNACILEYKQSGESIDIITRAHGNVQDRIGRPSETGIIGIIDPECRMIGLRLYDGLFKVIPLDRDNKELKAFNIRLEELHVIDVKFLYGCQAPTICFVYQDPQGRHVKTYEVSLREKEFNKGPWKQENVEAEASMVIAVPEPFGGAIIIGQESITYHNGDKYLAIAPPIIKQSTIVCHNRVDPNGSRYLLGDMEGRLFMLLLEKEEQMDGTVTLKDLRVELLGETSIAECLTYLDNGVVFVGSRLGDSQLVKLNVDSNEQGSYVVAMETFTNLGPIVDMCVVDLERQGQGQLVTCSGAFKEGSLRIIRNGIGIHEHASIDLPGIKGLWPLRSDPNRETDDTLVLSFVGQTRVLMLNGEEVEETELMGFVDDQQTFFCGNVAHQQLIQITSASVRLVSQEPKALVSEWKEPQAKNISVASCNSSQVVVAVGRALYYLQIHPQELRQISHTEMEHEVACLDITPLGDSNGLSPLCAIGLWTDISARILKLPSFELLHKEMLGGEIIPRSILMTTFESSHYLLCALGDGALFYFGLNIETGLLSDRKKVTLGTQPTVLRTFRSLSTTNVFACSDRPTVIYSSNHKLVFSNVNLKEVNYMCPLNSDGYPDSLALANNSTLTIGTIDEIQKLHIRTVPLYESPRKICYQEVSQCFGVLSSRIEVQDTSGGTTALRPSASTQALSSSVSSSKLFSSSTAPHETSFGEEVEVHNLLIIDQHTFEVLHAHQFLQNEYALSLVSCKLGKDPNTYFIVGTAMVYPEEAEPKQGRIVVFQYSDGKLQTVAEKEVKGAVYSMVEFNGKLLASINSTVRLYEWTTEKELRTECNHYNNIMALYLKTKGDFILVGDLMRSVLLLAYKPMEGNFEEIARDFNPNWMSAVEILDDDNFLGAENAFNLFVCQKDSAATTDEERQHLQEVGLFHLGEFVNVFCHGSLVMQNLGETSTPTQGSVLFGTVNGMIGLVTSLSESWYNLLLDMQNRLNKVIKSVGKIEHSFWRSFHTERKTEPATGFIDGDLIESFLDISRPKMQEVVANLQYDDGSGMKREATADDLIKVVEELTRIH
T2 sequence (Q13422 whole entry): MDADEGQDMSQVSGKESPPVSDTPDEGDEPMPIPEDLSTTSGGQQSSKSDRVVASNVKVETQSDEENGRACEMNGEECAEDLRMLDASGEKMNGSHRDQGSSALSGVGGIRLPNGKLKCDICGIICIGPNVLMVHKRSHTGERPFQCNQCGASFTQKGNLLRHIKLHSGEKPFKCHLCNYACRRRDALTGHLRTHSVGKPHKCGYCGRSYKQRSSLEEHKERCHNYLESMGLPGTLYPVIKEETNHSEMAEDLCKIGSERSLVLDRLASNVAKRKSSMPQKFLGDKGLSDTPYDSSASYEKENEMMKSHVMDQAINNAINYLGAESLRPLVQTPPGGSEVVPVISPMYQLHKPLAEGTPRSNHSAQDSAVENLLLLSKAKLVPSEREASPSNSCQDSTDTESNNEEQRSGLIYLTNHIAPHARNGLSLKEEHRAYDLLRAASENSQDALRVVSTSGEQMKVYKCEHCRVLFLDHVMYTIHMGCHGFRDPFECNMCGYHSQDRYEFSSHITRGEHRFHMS
Nature of the experiment: Western blot selectivity assay in MM1S cells: IKZF1. Further details: key: A represents a no degradation observed at 30 μM; B represents trace degradation at 30 μM (below 20%); C represents weak degradation at 30 μM (below 50%); D represents degradation at 30 μM (>90%); E represents degradation at 3 μM (>90%); F represents degradation at 0.3 μM (>90%). As to conditions: MM1S cells, 0.3, 3 and 30 μM, 6 hours. The experiment is classed as cell-based. The method, then: (§1) MM1S cells were purchased from ATCC (cat. Number CRL-2974), sub-cultured in 90% RPMI 1640 with 10% FBS, supplemented with 1×P/S and incubated at 37° C., 5% CO2. Compounds were stored as 10 mM DMSO stock. For the assay, MM1S cells (3 million cells/well) were plated in 6-well plates and incubated over night. Cells were treated with respective compounds using a serial dilution: 0.3 μM, 3 μM and 30 μM as well as a vehicle only (DMSO) control for 6 hours. Media with suspension cells was subsequently transferred to 15 mL conical tubes, wells rinsed twice with ice-cold PBS and merged with cell suspension in respective 15 mL conical tube. Cells were spinned down, supernatant aspirated, pellets resuspended in ice-cold PBS and transferred to microtubes. Cells were spinned down, supernatant aspirated and pellets resuspended in 120 μL RIPA lysis buffer supplemented with protease and phosphatase inhibitors. Cell lysates were incubated on ice for 20 minutes followed by centrifugation at >20,000×g for 5 min. Supernatants were transferred to fresh microtubes and stored at −80° C. Total protein concentration was determined using a BCA assay with a BSA standard curve and concentration of all samples was adjusted to 1 mg/mL. 25 μL 4×LDS sample buffer supplemented with 100 mM DTT was added to 75 μL sample. Samples were centrifuged (8,000×g, 1 min) and incubated at 95° C. for 5 min followed by another centrifugation step (8,000×g, 1 min). 20 μL of each sample was loaded on a 4-12% gel alongside a protein molecular weight marker. Gels were run in the presence of MOPS buffer at 80 Volts for 30 min, followed by 120 Volts for 1.5 h and proteins subsequently transferred onto nitrocellulose membranes at 20 Volts for 7 min using an iBlot2 Gel Transfer Device. Membranes were then cut horizontally into two pieces, covering 80-50 kDa and 50-25 kDa. Blocking the membranes was performed by gently shaking in 5% (w/v) skim milk in TSB-T for 1 hr at room temperature. All primary antibodies were used at a 1/1000 in 5% (w/v) BSA dissolved in TBST and incubated with membranes over night at 4° C. Anti-IKZF1 (Ikaros; D6N9Y; 14859S), anti-IKZF3 (Aiolos; D1C1E; 15103S) antibodies were purchased from Cell Signalling Technology, anti-ZFP91 antibody from Bethyl laboratories, anti-GSPT1 from Sigma Aldrich (HPA052488) and anti CK1alpha from AbCam (ab206652). After three washes with 1×TBST for 5 min, HRP-coupled secondary antibodies diluted in 5% (w/v) BSA/TBST (Goat Anti-Rb IgG, dil. 1/10,000; Goat Anti-Mouse IgG, dil. 1/5000) were added for 1 hr at room temperature. After three washes with 1×TBST (5 minutes each), membranes were incubated with ECL reagent for 1 min at room temperature. Chemiluminescence signals were then detected using a LAS-4000 system with default settings and signals quantified using Image Studio Lite software (version 5.2). Membrane parts previously incubated with antibody against CK1alpha were stripped off antibodies by incubating with stripping buffer for 30 minutes followed by three washed with TBST (5 min each), blocking with 5% (w/v) skim milk for 1 hr, and incubation with primary antibody against GAPDH overnight at 4° C. Subsequent washes, incubation with secondary antibody and signal acquisition were performed as described above.

In experiment [3] the target is T3, GSPT1 (Homo sapiens, UniProt P15170+Q96SW2). Nature of the experiment: Western blot selectivity assay in MM1S cells: GSPT1. To be noted: MM1S cells, 0.3, 3 and 30 μM, 6 hours. It is filed as cell-based. Further details: endogenous in cells; host or cells: MM1S (ATCC CRL-2974). The protocol: as §1
T3 sequence (P15170 whole entry): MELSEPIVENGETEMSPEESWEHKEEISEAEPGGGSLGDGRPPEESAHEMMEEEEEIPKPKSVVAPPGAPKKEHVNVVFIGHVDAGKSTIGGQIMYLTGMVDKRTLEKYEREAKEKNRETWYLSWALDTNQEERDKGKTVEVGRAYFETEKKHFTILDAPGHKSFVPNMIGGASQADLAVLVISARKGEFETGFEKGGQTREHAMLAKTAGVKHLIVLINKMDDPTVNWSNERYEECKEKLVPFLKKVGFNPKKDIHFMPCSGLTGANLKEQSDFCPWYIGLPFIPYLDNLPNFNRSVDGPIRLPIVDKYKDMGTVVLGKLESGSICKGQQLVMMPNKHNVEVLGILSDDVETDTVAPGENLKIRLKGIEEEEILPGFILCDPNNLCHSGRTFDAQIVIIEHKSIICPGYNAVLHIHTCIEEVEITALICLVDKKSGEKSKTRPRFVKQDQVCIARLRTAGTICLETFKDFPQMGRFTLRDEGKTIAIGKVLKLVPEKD
T3 sequence (Q96SW2 whole entry): as the sequence (Q96SW2 whole entry partner) above
T3 sequence (Q16531 2-1140 partner limits assumed): as the sequence (Q16531 2-1140 partner limits assumed) above
Experiment [4] has as its target T4, Full length wild-type cereblon CRBN (Homo sapiens, UniProt Q96SW2).
T4 construct: Full length wild-type cereblon CRBN (80.0 nM, 10 μL) was incubated in assay buffer
Nature of the experiment: Fluorescence polarization (FP) assay, cereblon binding. Summed up:
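Full-length wild-type human CRBN (80.0 nM) was preincubated with compound for 30 min at room temperature in 20 mM HEPES pH 8.0, 150 NaCl, 0.5 mM TCEP and 0.05% Tween 20. A Cy5-type thalidomide-linked fluorescent probe was then added. The FP signal was normalized to the DMSO control to derive IC50.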

Experiment [5] addresses T3, GSPT1. Put plainly: Immunofluorescence assay for GSPT1 degradation in CAL-51 cells (Example 4). It is filed as cell-based. Further details: host or cells: CAL-51. The method, then: The representative compounds were tested in an immunofluorescence assay for their activity to bind to degrade GSPT1. […] Compounds were stored at 10 mM DMSO stocks. […] Cells were subsequently rinsed with PBS and fixed in 10% Formalin solution (50 μl, Sigma HT5011)) for 20 mins at room temperature. […] Following three further PBS washes, […] blocking buffer (1% BSA, Sigma A4503, in PBS) was added for 45 min for signal-to-noise reduction.
Primary antibody (human GSPT1, Sigma HPA052488) was diluted in blocking buffer (dil.1/300, 35 μl/well) and incubated with the cells overnight at 4° C. […] After three final PBS washes, samples were conserved in 100 μl PBS in the dark, until measurement. Image acquisition was performed on the Operetta High-Content Imager (Perkin-Elmer). […] For the determination of GSPT1 DC50 values, a custom algorithm implemented in the PerkinElmer image analysis software Harmony-Acapella® was developed. After user-defined setting of adjustment parameters, the analysis was run identically without human intervention for all image fields. DAPI staining of the nuclei was used to determine the location of cells using standard nuclei detection modules. Segmentation artifacts were removed by threshold-based filters for area, roundness and intensity. The outline of the cells was determined analogously from the sum of the normalized, smoothed DAPI and Actin channel, starting from each nucleus.
GSPT1 degradation (DC50) was calculated after normalization to controls and data import in CDD vault Database, using non-linear regression.

Where [6] appears, read: bounds stated in the text lists b2059-b2061, read-out: IC50 value.
Setting [7] is: cereblon binding, class code, read-out: rFP IC50.
Where [8] appears, read: CAL-51 cells, 6 hours, read-out: Code (activity for GSPT1 degradation, DC50).
The mark [9] stands for this setting: compounds with code A, read-out: DC50 value.

T4 sequence (Q96SW2 whole entry): as the sequence (Q96SW2 whole entry partner) above
T1 sequence (Q96SW2 whole entry partner): as above
T1 sequence (Q16531 2-1140 partner limits assumed): as the sequence (Q16531 2-1140 partner limits assumed) above
T1 sequence (Q9UKT9 whole entry): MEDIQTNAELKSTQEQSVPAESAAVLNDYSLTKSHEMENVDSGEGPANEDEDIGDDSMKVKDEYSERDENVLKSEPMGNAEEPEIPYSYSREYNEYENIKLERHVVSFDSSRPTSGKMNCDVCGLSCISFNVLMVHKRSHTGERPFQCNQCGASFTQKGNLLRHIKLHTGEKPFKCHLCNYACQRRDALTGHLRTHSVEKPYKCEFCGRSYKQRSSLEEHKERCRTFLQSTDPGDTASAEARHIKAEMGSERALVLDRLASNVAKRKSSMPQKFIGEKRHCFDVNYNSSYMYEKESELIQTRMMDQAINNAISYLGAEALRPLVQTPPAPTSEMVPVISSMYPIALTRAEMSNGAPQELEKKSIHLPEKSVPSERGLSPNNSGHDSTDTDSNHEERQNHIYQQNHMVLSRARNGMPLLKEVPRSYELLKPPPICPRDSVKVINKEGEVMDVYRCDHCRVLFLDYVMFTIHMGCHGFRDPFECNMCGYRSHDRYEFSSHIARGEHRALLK

Consider `CC(C)(C)c1ccc(NC(=O)OCc2ccc3c(c2)C(=O)N(C2CCC(=O)NC2=O)C3)cc1` (stereo not shown) [Compound 47], for which, in experiment [1], the IKZF3 degradation result is reported as “A”. The IKZF1 degradation entry in experiment [2] is recorded as “A”. Further, the GSPT1 degradation result in experiment [3] is “F (F represents degradation at 0.3 μM (>90%))”. Moreover, the IC50 is less than 1700 nM in experiment [4] (setting [6]) and 1100 to 1700 nM in experiment [4] (setting [7]).
`Cc1c(Cl)cc(NC(=O)OCc2ccc3c(c2)C(=O)N(C2CCC(=O)NC2=O)C3)cc1OCCN1CCOCC1` (stereo not shown) [Compound 48]: the IKZF1 degradation entry in experiment [2] is on record as “A”. In experiment [3], the GSPT1 degradation entry is on record as “F (F represents degradation at 0.3 μM (>90%))”. Besides, the half-inhibitory concentration (IC50) in experiment [4] (setting [6]) was less than 1700 nM; in experiment [4] (setting [7]), 1100 to 1700 nM.
With `CCc1ncc(NC(=O)OCc2ccc3c(c2)C(=O)N(C2CCC(=O)NC2=O)C3)cc1C` (stereo not shown) [Compound 49], the IKZF3 degradation result in experiment [1] is “A”. For the same molecule, the IKZF1 degradation result in experiment [2] was “A”. In addition, the GSPT1 degradation result in experiment [3] is on record as “F (F represents degradation at 0.3 μM (>90%))”. Also, the values for the IC50 in experiment [4] (setting [6]) and in experiment [4] (setting [7]) were less than 1700 nM and 1100 to 1700 nM, respectively.
Take `CC(F)(F)c1ccc(NC(=O)OCc2ccc3c(c2)C(=O)N(C2CCC(=O)NC2=O)C3)cc1` (stereo not shown) [Compound 99]: in experiment [5] (setting [8]), the DC50 was 30 to 300 nM. Moreover, the figures for the IC50 in experiment [4] (setting [6]) and in experiment [4] (setting [7]) were less than 1700 nM and 1100 to 1700 nM, respectively.
On to `O=C1CCC(N2Cc3ccc(COC(=O)Nc4ccc(C5(F)CC5)cc4)cc3C2=O)C(=O)N1` (stereo not shown) [Compound 115, (2-(2,6-dioxopiperidin-3-yl)-3-oxoisoindolin-5-yl)methyl(4-(1-fluorocyclopropyl)phenyl) carbamate], for which the 50% degradation concentration (DC50) in experiment [5] (setting [8]) fell in the range of 30 to 300 nM. In addition, the IC50 in experiment [4] (setting [6]) and in experiment [4] (setting [7]) was less than 500 nM throughout.
Take `O=C1CCC(N2Cc3ccc(COC(=O)Nc4cccc(OC5CC5(F)F)c4)cc3C2=O)C(=O)N1` (stereo not shown) [Compound 140]: the results for the 50% degradation concentration (DC50) in experiment [5] (setting [8]) and in experiment [5] (setting [9]) were less than 30 nM and not above 30 nM, respectively. Besides, the concentration for half-maximal inhibition (IC50) is less than 1100 nM in experiment [4] (setting [6]) and 500 to 1100 nM in experiment [4] (setting [7]).
With `Cc1c(Cl)cc(NC(=O)OCc2ccc3c(c2)C(=O)N(C2CCC(=O)NC2=O)C3)cc1CC1COCCN1C` (stereo not shown) [Compound 150, (2-(2,6-dioxopiperidin-3-yl)-3-oxoisoindolin-5-yl) methyl(3-chloro-4-methyl-5-((4-methylmorpholin-3-yl)methyl)phenyl)carbamate], the half-maximal degradation concentration (DC50) in experiment [5] (setting [9]) is not above 30 nM; in experiment [5] (read-out: Code (activity for GSPT1 degradation, DC50), CAL-51 cells, 6 hours), less than 30 nM. Moreover, the IC50 in experiment [4] (IC50 value, bounds stated in the text lists b2059-b2061) was less than 1700 nM; in experiment [4] (rFP IC50 [nM], cereblon binding, class code), 1100 to 1700 nM.
With `CCc1cc(NC(=O)OCc2ccc3c(c2)C(=O)N(C2CCC(=O)NC2=O)C3)sn1` (stereo not shown) [Compound 151], the DC50 in experiment [5] (setting [8]) lay within 30 to 300 nM. Further, the IC50 in experiment [4] (setting [6]) and in experiment [4] (setting [7]) was less than 500 nM in each case.

Broadly, the IC50 is the point on the concentration scale where inhibition reaches its midpoint. In general, DC50 refers to the midpoint of the concentration-degradation curve.
